In ChEMBL document CHEMBL1201862, “PubChem BioAssay data set” (2004):
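Exposure lasted 48 hours, with cells grown in 96-well plates and compounds tested at five concentrations. Abbreviation: GI50, concentration required for 50% inhibition of growth.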 Active and inactive are the calls of the source. Cut-off read from the data, not from the text of the source: active = GI50 up to about 1.1 µM and inactive = higher.

How the values were obtained:
Test in all cases: NCI-60 cell line screen, 48 h
M14 = tested on: M14
HOP-62 = tested on: HOP-62
SR = tested on: SR
OVCAR-5 = tested on: OVCAR-5
MDA-MB-435 = tested on: MDA-MB-435
SF-268 = tested on: SF-268
SF-539 = tested on: SF-539
MOLT-4 = tested on: MOLT-4
SK-MEL-5 = tested on: SK-MEL-5
A498 = tested on: A498
MCF7 = tested on: MCF7
NCI/ADR-RES = tested on: NCI/ADR-RES
OVCAR-3 = tested on: OVCAR-3
LOX IMVI = tested on: LOX IMVI
SF-295 = tested on: SF-295
T47D = tested on: T47D
HCT-15 = tested on: HCT-15
RPMI-8226 = tested on: RPMI-8226
RXF 393 = tested on: RXF 393
MDA-N = tested on: MDA-N
SK-MEL-2 = tested on: SK-MEL-2
CCRF-CEM = tested on: CCRF-CEM
Hs-578T = tested on: Hs-578T
UACC-62 = tested on: UACC-62
CAKI-1 = tested on: CAKI-1
SN12C = tested on: SN12C
DU-145 = tested on: DU-145
OVCAR-4 = tested on: OVCAR-4
786-0 = tested on: 786-0
HT-29 = tested on: HT-29
SNB-75 = tested on: SNB-75
KM12 = tested on: KM12
NCI-H226 = tested on: NCI-H226
BT-549 = tested on: BT-549
MDA-MB-231 = tested on: MDA-MB-231
Malme-3M = tested on: Malme-3M
UO-31 = tested on: UO-31
U-251 = tested on: U-251
EKVX = tested on: EKVX
HOP-92 = tested on: HOP-92
HCT-116 = tested on: HCT-116
NCI-H23 = tested on: NCI-H23
ACHN = tested on: ACHN
PC-3 = tested on: PC-3
SW-620 = tested on: SW-620
A549 = tested on: A549
SNB-19 = tested on: SNB-19
NCI-H460 = tested on: NCI-H460
K562 = tested on: K562
IGROV-1 = tested on: IGROV-1
HL-60 = tested on: HL-60
NCI-H522 = tested on: NCI-H522
OVCAR-8 = tested on: OVCAR-8
SK-MEL-28 = tested on: SK-MEL-28
HCC 2998 = tested on: HCC 2998
UACC-257 = tested on: UACC-257
COLO 205 = tested on: COLO 205
SK-OV-3 = tested on: SK-OV-3
TK-10 = tested on: TK-10

For O=c1cc(-c2ccccc2)c2ccc(O)c(CN(CCCl)CCCl)c2o1, the GI50 (M14) was 20.1 µM (inactive), the GI50 (HOP-62) was 17.2 µM (inactive) and the GI50 (SR) was 11.1 µM (inactive). The GI50 (OVCAR-5) was 17.8 µM (inactive), the GI50 (MDA-MB-435) was 19.9 µM (inactive) and the GI50 (SF-268) was 17.5 µM (inactive). The GI50 (SF-539) was 20.3 µM (inactive), the GI50 (MOLT-4) was 5.75 µM (inactive) and the GI50 (SK-MEL-5) was 16.9 µM (inactive). The GI50 (A498) was 19.1 µM (inactive), the GI50 (MCF7) was 17.2 µM (inactive) and the GI50 (NCI/ADR-RES) was 32.3 µM (inactive). For the same compound, the GI50 (OVCAR-3) was 19.3 µM (inactive), the GI50 (LOX IMVI) was 8.26 µM (inactive) and the GI50 (SF-295) was 11 µM (inactive). For the same compound, the GI50 (T47D) was 23.4 µM (inactive), the GI50 (HCT-15) was 22.1 µM and the GI50 (RPMI-8226) was 12.6 µM (inactive). The GI50 (RXF 393) was 14 µM (inactive), the GI50 (MDA-N) was 17.6 µM (inactive) and the GI50 (SK-MEL-2) was 22.8 µM (inactive). The GI50 (CCRF-CEM) was 3.07 µM (inactive), the GI50 (Hs-578T) was 24.9 µM (inactive) and the GI50 (UACC-62) was 16.9 µM (inactive). For the same compound, the GI50 (CAKI-1) was 15.5 µM (inactive), the GI50 (SN12C) was 17.2 µM (inactive) and the GI50 (DU-145) was 33.6 µM (inactive). The GI50 (OVCAR-4) was 34.8 µM (inactive), the GI50 (786-0) was 18.5 µM (inactive) and the GI50 (HT-29) was 10.3 µM (inactive). The GI50 (SNB-75) was 15.7 µM (inactive), the GI50 (KM12) was 17.9 µM (inactive) and the GI50 (NCI-H226) was 17.9 µM (inactive). For the same compound, the GI50 (BT-549) was 10.6 µM (inactive), the GI50 (MDA-MB-231) was 15.7 µM (inactive) and the GI50 (Malme-3M) was 21 µM (inactive). The GI50 (UO-31) was 14.4 µM (inactive), the GI50 (U-251) was 22.1 µM (inactive) and the GI50 (EKVX) was 25.5 µM (inactive). The GI50 (HOP-92) was 20.8 µM (inactive), the GI50 (HCT-116) was 19.1 µM (inactive) and the GI50 (NCI-H23) was 19.5 µM (inactive). The GI50 (ACHN) was 20.4 µM (inactive), the GI50 (PC-3) was 17.8 µM (inactive) and the GI50 (SW-620) was 18.8 µM (inactive). For the same compound, the GI50 (A549) was 16.1 µM (inactive), the GI50 (SNB-19) was 18.5 µM (inactive) and the GI50 (NCI-H460) was 17.8 µM (inactive). The GI50 (K562) was 29 µM (inactive), the GI50 (IGROV-1) was 15.5 µM (inactive) and the GI50 (HL-60) was 13.4 µM (inactive). The GI50 (NCI-H522) was 14.7 µM (inactive), the GI50 (OVCAR-8) was 15.8 µM (inactive) and the GI50 (SK-MEL-28) was 18.8 µM (inactive). The GI50 (HCC 2998) was 12.3 µM (inactive), the GI50 (UACC-257) was 16.4 µM (inactive) and the GI50 (COLO 205) was 12.4 µM (inactive).
With CCCCSc1n/c(=C\c2ccc(N(C)C)cc2)c2nnnn12 the GI50 (M14) was > 100 µM (inactive), the GI50 (HOP-62) was > 100 µM (inactive) and the GI50 (SR) was > 100 µM (inactive). For the same compound, the GI50 (OVCAR-5) was > 100 µM (inactive), the GI50 (MDA-MB-435) was > 100 µM (inactive) and the GI50 (SF-268) was > 100 µM (inactive). For the same compound, the GI50 (SF-539) was > 100 µM (inactive), the GI50 (MOLT-4) was > 100 µM (inactive) and the GI50 (A498) was > 100 µM (inactive). The GI50 (MCF7) was > 100 µM (inactive), the GI50 (NCI/ADR-RES) was > 100 µM (inactive) and the GI50 (OVCAR-3) was > 100 µM (inactive). The GI50 (LOX IMVI) was > 100 µM (inactive), the GI50 (SF-295) was > 100 µM (inactive) and the GI50 (T47D) was > 100 µM (inactive). The GI50 (HCT-15) was > 100 µM, the GI50 (RPMI-8226) was > 100 µM (inactive) and the GI50 (RXF 393) was > 100 µM (inactive). For the same compound, the GI50 (MDA-N) was > 100 µM (inactive), the GI50 (SK-MEL-2) was > 100 µM (inactive) and the GI50 (Hs-578T) was > 100 µM (inactive). The GI50 (UACC-62) was > 100 µM (inactive), the GI50 (CAKI-1) was > 100 µM (inactive) and the GI50 (SN12C) was > 100 µM (inactive). For the same compound, the GI50 (DU-145) was > 100 µM (inactive), the GI50 (OVCAR-4) was > 100 µM (inactive) and the GI50 (786-0) was > 100 µM (inactive). The GI50 (HT-29) was > 100 µM (inactive), the GI50 (SNB-75) was > 100 µM (inactive) and the GI50 (KM12) was > 100 µM (inactive). For the same compound, the GI50 (NCI-H226) was > 100 µM (inactive), the GI50 (BT-549) was > 100 µM (inactive) and the GI50 (MDA-MB-231) was > 100 µM (inactive). The GI50 (Malme-3M) was > 100 µM (inactive), the GI50 (UO-31) was 73.8 µM (inactive) and the GI50 (U-251) was > 100 µM (inactive). The GI50 (EKVX) was > 100 µM (inactive), the GI50 (HOP-92) was > 100 µM (inactive) and the GI50 (HCT-116) was > 100 µM (inactive). For the same compound, the GI50 (NCI-H23) was > 100 µM (inactive), the GI50 (ACHN) was > 100 µM (inactive) and the GI50 (PC-3) was > 100 µM (inactive). The GI50 (SW-620) was > 100 µM (inactive), the GI50 (A549) was > 100 µM (inactive) and the GI50 (SNB-19) was > 100 µM (inactive). The GI50 (NCI-H460) was > 100 µM (inactive), the GI50 (SK-OV-3) was > 100 µM (inactive) and the GI50 (K562) was > 100 µM (inactive). The GI50 (IGROV-1) was > 100 µM (inactive), the GI50 (HL-60) was > 100 µM (inactive) and the GI50 (NCI-H522) was > 100 µM (inactive). The GI50 (TK-10) was > 100 µM (inactive), the GI50 (OVCAR-8) was > 100 µM (inactive) and the GI50 (SK-MEL-28) was > 100 µM (inactive). The GI50 (HCC 2998) was > 100 µM (inactive), the GI50 (UACC-257) was > 100 µM (inactive) and the GI50 (COLO 205) was > 100 µM (inactive).
In the case of CCOC(=O)c1sc(N)nc1N1CCCC1, the GI50 (M14) is reported as > 100 µM (inactive), the GI50 (HOP-62) is reported as > 100 µM (inactive) and the GI50 (SR) is reported as > 100 µM (inactive). The GI50 (OVCAR-5) was > 100 µM (inactive), the GI50 (MDA-MB-435) was > 100 µM (inactive) and the GI50 (SF-539) was > 100 µM (inactive). The GI50 (MOLT-4) was > 100 µM (inactive), the GI50 (SK-MEL-5) was > 100 µM (inactive) and the GI50 (A498) was > 100 µM (inactive). For the same compound, the GI50 (MCF7) was > 100 µM (inactive), the GI50 (NCI/ADR-RES) was > 100 µM (inactive) and the GI50 (OVCAR-3) was > 100 µM (inactive). The GI50 (LOX IMVI) was > 100 µM (inactive), the GI50 (SF-295) was > 100 µM (inactive) and the GI50 (T47D) was > 100 µM (inactive). For the same compound, the GI50 (HCT-15) was > 100 µM, the GI50 (RPMI-8226) was > 100 µM (inactive) and the GI50 (RXF 393) was 0.942 µM (active). For the same compound, the GI50 (MDA-N) was > 100 µM (inactive), the GI50 (SK-MEL-2) was > 100 µM (inactive) and the GI50 (CCRF-CEM) was > 100 µM (inactive). The GI50 (Hs-578T) was > 100 µM (inactive), the GI50 (UACC-62) was > 100 µM (inactive) and the GI50 (CAKI-1) was > 100 µM (inactive). For the same compound, the GI50 (SN12C) was > 100 µM (inactive), the GI50 (DU-145) was > 100 µM (inactive) and the GI50 (OVCAR-4) was > 100 µM (inactive). The GI50 (786-0) was > 100 µM (inactive), the GI50 (HT-29) was > 100 µM (inactive) and the GI50 (SNB-75) was > 100 µM (inactive). The GI50 (KM12) was > 100 µM (inactive), the GI50 (NCI-H226) was > 100 µM (inactive) and the GI50 (BT-549) was > 100 µM (inactive). For the same compound, the GI50 (MDA-MB-231) was > 100 µM (inactive), the GI50 (Malme-3M) was > 100 µM (inactive) and the GI50 (UO-31) was > 100 µM (inactive). For the same compound, the GI50 (U-251) was > 100 µM (inactive), the GI50 (EKVX) was > 100 µM (inactive) and the GI50 (HOP-92) was > 100 µM (inactive). The GI50 (HCT-116) was > 100 µM (inactive), the GI50 (NCI-H23) was > 100 µM (inactive) and the GI50 (ACHN) was > 100 µM (inactive). The GI50 (PC-3) was > 100 µM (inactive), the GI50 (SW-620) was > 100 µM (inactive) and the GI50 (A549) was > 100 µM (inactive). For the same compound, the GI50 (SNB-19) was > 100 µM (inactive), the GI50 (NCI-H460) was > 100 µM (inactive) and the GI50 (SK-OV-3) was > 100 µM (inactive). For the same compound, the GI50 (K562) was > 100 µM (inactive), the GI50 (IGROV-1) was > 100 µM (inactive) and the GI50 (HL-60) was > 100 µM (inactive). For the same compound, the GI50 (NCI-H522) was > 100 µM (inactive), the GI50 (TK-10) was > 100 µM (inactive) and the GI50 (OVCAR-8) was > 100 µM (inactive). The GI50 (SK-MEL-28) was > 100 µM (inactive), the GI50 (UACC-257) was > 100 µM (inactive) and the GI50 (COLO 205) was > 100 µM (inactive).
